# Square brackets hold non-standard residues; d marks the D form. Peptide text beside a SMILES is read from it. * marks the point of attachment. Dolaproine = CO[C@@H]([C@@H]1CCCN1)[C@@H](C)C(=O)O; Dil = CC[C@H](C)[C@H](NC)[C@@H](CC(=O)O)OC; X1 = C[C@@H](N*)[C@@H](O)c1ccccc1; NMeV = CN[C@H](C(=O)O)C(C)C
# What was measured:
# [1] = Plasma clearance pharmacokinetics in rats; assay type: in vivo, Sprague-Dawley rats; conditions: rat, free drug
# Protocol: Pharmacokinetic plasma clearance and stability of ADC were investigated in rats and cynomolgus monkeys. Plasma concentration was measured over time. […] Rats are a non-specific model for ErbB receptor antibodies, since the rat is not known to express HER2 receptor proteins.
# AUC inf is the area under the plasma concentration-time curve from time of dosing to infinity and is a measure of the total exposure to the measured entity (drug, ADC). CL is defined as the volume of plasma cleared of the measured entity in unit time and is expressed by normalizing to body weight. T1/2 term is the half-life of the drug in the body measured during its elimination phase.
# Animals were dosed by bolus tail vein injection (IV Push). […] Total antibody was measured by ELISA—ECD/GxhuFc-HRP. Antibody drug conjugate was measured by ELISA—MMAE/MMAF/ECD-Bio/SA-HRP.
# SK-BR-3 cells = assay: In vitro cell proliferation assay (CellTiter-Glo), SK-BR-3 cells; assay type: cell-based, human; conditions: ADC incubated 3-5 days
# Protocol: Cell-based in vitro assays were used to measure viability (proliferation), cytotoxicity, and induction of apoptosis (caspase activation) of the ADC of the invention.
# The homogeneous assay procedure involves adding the single reagent (CellTiter-Glo® Reagent) directly to cells cultured in serum-supplemented medium. Cell washing, removal of medium and multiple pipetting steps are not required. The system detects as few as 15 cells/well in a 384-well format in 10 minutes after adding reagent and mixing. The cells may be treated continuously with ADC, or they may be treated and separated from ADC.
# The homogeneous “add-mix-measure” format results in cell lysis and generation of a luminescent signal proportional to the amount of ATP present. The amount of ATP is directly proportional to the number of cells present in culture. […] Viable cells are reflected in relative luminescence units (RLU). […] Data can be recorded by luminometer or CCD camera imaging device. The luminescence output is presented as relative light units (RLU), measured over time.
# Control wells were prepared containing medium and without cells. • 3. […] The plate was incubated at room temperature for 10 minutes to stabilize the luminescence signal. • 8. Luminescence was recorded and reported in graphs as RLU=relative luminescence units.
# [2] = tested on: CD30+ cell line Karpas 299; assay: Cytotoxicity determination (resazurin, General Procedure I), Karpas 299; assay type: cell-based, human; conditions: Karpas 299, 96 hours; for IC50: resazurin
# Protocol: General Procedure I—Cytotoxicity determination. To evaluate the cytotoxicity of Exemplary Conjugates 7-10, cells were seeded at approximately 5-10,000 per well in 150 μl of culture medium then treated with graded doses of Exemplary Conjugates 7-10 in quadruplicates at the initiation of assay. Cytotoxicity assays were carried out for 96 hours after addition of test compounds. Fifty μl of the resazurin dye was added to each well during the last 4 to 6 hours of the incubation to assess viable cells at the end of culture. Dye reduction was determined by fluorescence spectrometry using the excitation and emission wavelengths of 535 nm and 590 nm, respectively. For analysis, the extent of resazurin reduction by the treated cells was compared to that of the untreated control cells.
compound,measurement,setting,value
"CC[C@H](C)[C@@H]([C@@H](CC(=O)N1CCC[C@H]1[C@H](OC)[C@@H](C)C(=O)N[C@@H](Cc1ccccc1)C(=O)O)OC)N(C)C(=O)[C@@H](NC(=O)[C@@H](NC)C(C)C)C(C)C [Compound 2, N-methylvaline-valine-dolaisoleuine-dolaproine-phenylalanine] (H-[NMeV]V[Dil][Dolaproine]F-OH)",Cmax,"[1]; Sprague-Dawley, plasma, intravenous, 200 ug/kg",280 ng/mL
same,half-life,"[1]; Sprague-Dawley, plasma, intravenous, 200 ug/kg, 200 μg/kg, read-out: T½ Term. (converted)",323 min
same,AUCinf,[1]; 200 μg/kg,0.99 µg·days/mL
same,CL,[1]; 200 μg/kg,204 mL/day/kg
"CC[C@H](C)[C@@H]([C@@H](CC(=O)N1CCC[C@H]1[C@H](OC)[C@@H](C)C(=O)N[C@H](C)[C@@H](O)c1ccccc1)OC)N(C)C(=O)[C@@H](NC(=O)[C@@H](NC)C(C)C)C(C)C [MMAE, mono-methyl auristatin E, reference compound] (H-[NMeV]V[Dil][Dolaproine]-X1)",AUCinf,[1]; 206 μg/kg,3.71 µg·days/mL
same,CL,[1]; 206 μg/kg,62.6 mL/day/kg
same,T½ Term.,[1]; 206 μg/kg,0.743 days
H-MC-vc-PAB-MMAE: trastuzumab conjugated via a cysteine to MC-val-cit-PAB-MMAE; preparations of different loading,IC50 (μg ADC/ml),SK-BR-3 cells,0.015 μg ADC/ml
cAC10-9: cAC10 Conjugate of Compound 9,activity compared with cAC10-val-cit-MMAE,[2],slightly more active
same,IC50,[2],0.5 ng/mL
cAC10-val-cit-MMAE: cAC10 (anti-CD30) val-cit MMAE conjugate used as comparator [reference compound],IC50,[2],6 ng/mL
